One block for each molecule: values may come before it.
Key:
[1] = target: T1, Metabotropic glutamate receptor 5 (Rattus norvegicus, UniProt P31424); experiment: Antagonist activity at rat mGluR5 expressed in HEK293 cells assessed as inhibition of glutamate-induced calcium mobilization by Fluo-4 dye-based fluorescence assay; type: functional, cell-based
[2] = target: T1, Metabotropic glutamate receptor 5; experiment: Displacement of [3H]methoxy-PEPgamma from mGluR5 in rat cerebral cortex membranes after 60 mins by scintillation counting analysis; type: cell membranes, Membrane
[3] = target: T2, Metabotropic glutamate receptor 5 (Homo sapiens, UniProt P41594); experiment: Antagonist activity at human mGluR5 expressed in CHO cells assessed as inhibition of glutamate-induced effect by aequorin bioluminescence assay; type: cell-based
T2 sequence (P41594 whole entry): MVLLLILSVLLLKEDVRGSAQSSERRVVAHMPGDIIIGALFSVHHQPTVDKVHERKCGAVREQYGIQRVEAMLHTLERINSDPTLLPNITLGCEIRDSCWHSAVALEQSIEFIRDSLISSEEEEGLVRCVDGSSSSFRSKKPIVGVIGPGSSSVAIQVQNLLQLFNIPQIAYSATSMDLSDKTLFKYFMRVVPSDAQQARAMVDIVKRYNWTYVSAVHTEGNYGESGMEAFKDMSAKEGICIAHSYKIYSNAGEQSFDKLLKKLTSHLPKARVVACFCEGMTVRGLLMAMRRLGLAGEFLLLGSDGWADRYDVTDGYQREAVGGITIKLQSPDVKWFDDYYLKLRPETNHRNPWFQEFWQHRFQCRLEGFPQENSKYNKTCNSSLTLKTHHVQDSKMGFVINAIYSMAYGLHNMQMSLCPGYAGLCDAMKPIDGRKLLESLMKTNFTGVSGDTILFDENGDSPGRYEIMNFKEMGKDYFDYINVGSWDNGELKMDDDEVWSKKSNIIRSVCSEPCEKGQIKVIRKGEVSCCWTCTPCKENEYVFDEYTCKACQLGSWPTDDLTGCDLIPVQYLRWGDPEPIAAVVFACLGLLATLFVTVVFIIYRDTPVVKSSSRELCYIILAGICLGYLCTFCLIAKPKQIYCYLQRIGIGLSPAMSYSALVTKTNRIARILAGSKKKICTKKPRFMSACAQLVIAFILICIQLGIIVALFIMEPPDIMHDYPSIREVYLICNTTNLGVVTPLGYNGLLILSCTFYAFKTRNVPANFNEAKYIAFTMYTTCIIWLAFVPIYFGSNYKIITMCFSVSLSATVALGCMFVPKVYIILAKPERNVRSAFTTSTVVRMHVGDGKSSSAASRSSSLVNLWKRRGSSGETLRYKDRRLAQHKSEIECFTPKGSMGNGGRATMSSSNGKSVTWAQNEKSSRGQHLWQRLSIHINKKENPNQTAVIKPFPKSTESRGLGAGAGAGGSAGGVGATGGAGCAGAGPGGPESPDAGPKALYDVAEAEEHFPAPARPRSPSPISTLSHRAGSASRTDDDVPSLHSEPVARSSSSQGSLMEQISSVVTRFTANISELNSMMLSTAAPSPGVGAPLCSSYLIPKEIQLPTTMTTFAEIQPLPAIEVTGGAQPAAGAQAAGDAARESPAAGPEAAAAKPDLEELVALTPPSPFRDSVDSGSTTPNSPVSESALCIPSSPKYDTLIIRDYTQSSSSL

[4] = target: T2, Metabotropic glutamate receptor 5; experiment: Antagonist activity at mGluR5 (unknown origin)
[5] = target: T2, Metabotropic glutamate receptor 5; experiment: Antagonist activity at human mGluR5d by fluo-3-based FLIPR assay

T1 sequence (P31424 whole entry): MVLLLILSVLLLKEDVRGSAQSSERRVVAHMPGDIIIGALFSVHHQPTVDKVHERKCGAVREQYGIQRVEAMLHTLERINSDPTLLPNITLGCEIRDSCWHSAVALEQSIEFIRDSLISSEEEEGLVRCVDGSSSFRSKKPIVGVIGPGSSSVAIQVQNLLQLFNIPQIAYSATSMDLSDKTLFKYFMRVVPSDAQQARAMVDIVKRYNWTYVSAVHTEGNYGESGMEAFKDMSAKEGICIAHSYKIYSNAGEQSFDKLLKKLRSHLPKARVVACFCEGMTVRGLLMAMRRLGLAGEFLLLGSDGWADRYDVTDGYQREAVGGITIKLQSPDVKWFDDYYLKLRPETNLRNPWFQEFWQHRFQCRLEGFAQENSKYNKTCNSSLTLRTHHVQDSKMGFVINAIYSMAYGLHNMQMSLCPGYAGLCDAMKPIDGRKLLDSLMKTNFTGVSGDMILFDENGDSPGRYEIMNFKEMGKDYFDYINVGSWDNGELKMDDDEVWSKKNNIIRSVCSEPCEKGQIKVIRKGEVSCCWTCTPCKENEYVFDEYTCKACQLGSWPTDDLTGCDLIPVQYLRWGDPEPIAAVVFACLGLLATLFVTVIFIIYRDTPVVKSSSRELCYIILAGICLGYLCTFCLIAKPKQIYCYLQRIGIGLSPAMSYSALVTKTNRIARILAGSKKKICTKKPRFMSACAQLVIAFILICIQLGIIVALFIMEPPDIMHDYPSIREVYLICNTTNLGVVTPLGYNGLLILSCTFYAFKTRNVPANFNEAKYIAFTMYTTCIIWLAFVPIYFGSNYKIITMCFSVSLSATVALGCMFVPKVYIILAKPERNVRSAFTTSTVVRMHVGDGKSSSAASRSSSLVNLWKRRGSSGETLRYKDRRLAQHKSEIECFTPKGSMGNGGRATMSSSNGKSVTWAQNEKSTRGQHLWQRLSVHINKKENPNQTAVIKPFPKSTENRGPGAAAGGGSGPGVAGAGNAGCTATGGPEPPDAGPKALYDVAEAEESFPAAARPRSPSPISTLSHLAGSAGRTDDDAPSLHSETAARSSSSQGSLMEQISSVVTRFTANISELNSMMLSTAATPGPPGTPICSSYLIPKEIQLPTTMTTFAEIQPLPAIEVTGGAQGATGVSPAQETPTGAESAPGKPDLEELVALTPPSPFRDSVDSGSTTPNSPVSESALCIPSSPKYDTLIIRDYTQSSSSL

Ki [2]: 6.7 nM
Compound: Cc1cccc(C(=O)NC23CC4CC(C2)CC(NC(=O)c2cccc(C)n2)(C4)C3)n1

IC50 [4]: 10 nM
Compound: N#Cc1nccnc1N1CCN2[C@@H](CC[C@@H]2c2nnn(-c3cccc(Cl)c3)n2)C1 (racemic)

IC50 [5]: 20 nM
Compound: N#Cc1cccc(C#C[C@H]2CCC[C@H]3CN(c4ncccc4C#N)CCN32)c1 (racemic)

Second part, the molecule before the results:

Compound: N#Cc1cnc(Nc2nc3ccccc3o2)nc1-c1ccc(F)cc1
IC50 [1]: 91 nM

Compound: O=C(Nc1ccnc(Cl)c1)c1nnn2c1CSc1c-2ccc(F)c1Cl
IC50 [3]: 0.79 nM

From ChEMBL document CHEMBL3758087, “7TM X-ray structures for class C GPCRs as new drug-discovery tools. 1. mGluR5” (Bioorg Med Chem Lett, 2016)
